For orientation: kinetic solubility means the concentration staying in solution when a stock, usually in DMSO, is diluted into the medium.

In brackets after ≈: the same amount, converted by molar mass.

The conditions of this data set: buffer; pH 7.4; 200.0 µM.
Take `NS(=O)(=O)c1cccc(C(=O)NC2CCSc3ccccc32)c1` (configuration not stated): the solubility (kinetic) was determined as 42.4 µg/mL (≈ 122 µM).
In the case of `Cn1cnc([N+](=O)[O-])c1Cl` it was > 24.2 µg/mL; in that of `Cc1ccc(C(=O)NCCCN2CCOCC2)c(Cl)c1`, > 44.5 µg/mL; in that of `O=[N+]([O-])c1ccc(OCc2cnc(Cl)s2)c([N+](=O)[O-])c1`, 4.7 µg/mL (≈ 14.9 µM).
In the case of `CCC(=O)Nc1cc(-c2cc3ccccc3oc2=O)ccc1OC` it was 11 µg/mL (≈ 34 µM).
In the case of `O=C(O/N=C1/CCCc2occc21)c1ccc(Cl)cc1Cl` it was < 0.7 µg/mL.
`CCOc1cc(CN2CCN(c3ncccn3)CC2)ccc1OC` came in with a kinetic solubility of 43.4 µg/mL (≈ 132 µM).
As to `Cc1cc(S(=O)(=O)N2CCN(C(=O)c3ccco3)CC2)ccc1F`, the kinetic solubility is > 52.9 µg/mL.
In the case of `Cl.Nc1ccc(Cc2ccccn2)cc1`, the solubility (kinetic) was > 38.6 µg/mL.
Then `N/C(=N\OC(=O)/C=C/c1ccccc1)c1ccc(Cl)cc1`, with 1.3 µg/mL (≈ 4.32 µM); and `Cc1ccc(-c2csc(NC(=O)c3ccccc3Cl)c2C(=O)O)cc1`, with > 55.8 µg/mL; and `Cc1cc(C)cc(OCCn2ccnc2)c1`, with 29.3 µg/mL (≈ 135 µM).
Turning to `O=C(COC(=O)C1CC2CCCC(C1)C2=O)NC1CCCCC1` (configuration not stated), the solubility (kinetic) is > 48.2 µg/mL.
Then `COc1ccc2nc(C)c3c(c2c1)OC(C(C)(Cl)Br)C3` (configuration not stated), with 4 µg/mL (≈ 11.2 µM).
Regarding `O=C(Cc1ccccc1)NCC(=O)N1CCCCC1`, the solubility (kinetic) was > 39.1 µg/mL.
`CCOC(=O)c1sc(Nc2nc(C)cc(C)n2)nc1C`: the solubility (kinetic) was 1.2 µg/mL (≈ 4.1 µM).
In the case of `CC(=O)c1cccc(NC(=O)C2C3C=CC(C3)C2C(=O)O)c1` (configuration not stated) it was > 44.9 µg/mL; in that of `CCCCN(CC)Cc1c(O)ccc2c(-c3ccccc3)cc(=O)oc12`, 36.1 µg/mL (≈ 103 µM); in that of `CC(NC(=O)c1c(O)c2ccccc2n(C)c1=O)c1ccccc1` (configuration not stated), < 0.3 µg/mL.
In the case of `CS(=O)(=O)N1CCN(C(=O)c2ccc3c(c2)OCCO3)CC1` it was > 49 µg/mL; in that of `CCn1c(/C=C/c2ccc(F)cc2)nc2ccccc2c1=O`, 1.6 µg/mL (≈ 5.44 µM); in that of `CC(=O)c1ccc(NC(=S)N2CCCC(C(F)(F)F)C2)cc1` (configuration not stated), 47.6 µg/mL (≈ 144 µM).
Then `Cc1cccc(N2CCN(C(=O)c3ccc4c(c3)OCCO4)CC2)c1C`, with 15.7 µg/mL (≈ 44.5 µM); and `CC(=O)c1cn(C2OC(CO)C3OC(C)(C)OC32)c(=O)n(C)c1=O` (configuration not stated), with 48.9 µg/mL (≈ 144 µM); and `O=C(O)C1CCN(S(=O)(=O)c2cccc3cccnc23)CC1`, with > 48.1 µg/mL.
Consider `CCN1CCc2c(OCC(=O)N3CCc4ccccc43)cccc2C1=O`, for which the solubility (kinetic) was > 52.6 µg/mL.
Then `CC1CN(c2ccc(S(=O)(=O)N3CCCC3)cn2)CC(C)O1` (configuration not stated), with > 48.8 µg/mL; and `Cc1ccc(S(=O)(=O)NC(C)(C)CN2CCCCC2)cc1`, with > 46.6 µg/mL.
In the case of `O=C(O)/C=C/C(=O)NC1CC1` it was > 23.3 µg/mL; in that of `Cc1ccc(C)c(Nc2nc(-c3cccnc3)cs2)c1`, 0.9 µg/mL (≈ 3.2 µM); in that of `CCCCNC(=O)c1cc2c(=O)n3cccc(C)c3nc2s1`, 1.3 µg/mL (≈ 4.12 µM).
For `CCCCNc1ccc(C(=O)OCCN(C)C)cc1.Cl`, the solubility (kinetic) is > 45.1 µg/mL.
In the case of `COc1ccc(OC)c(CN2CCSCC2)c1` it was 25.5 µg/mL (≈ 101 µM); in that of `O=S(=O)(c1ccc(NCCCO)nc1)N1CCOCC1`, > 45.2 µg/mL; in that of `CC(=O)c1ccc(NC(=O)COC(=O)CCC2CCCC2)cc1`, 17 µg/mL (≈ 53.6 µM).
In the case of `CC(C)C(=O)OCC(=O)NCc1ccccc1Cl` it was 37.6 µg/mL (≈ 139 µM).
In the case of `Cc1ccc(C(=O)CN2C(=O)C(C)Oc3ccccc32)cc1` (configuration not stated), the kinetic solubility was determined as 21.6 µg/mL (≈ 73.1 µM).
For `CCCCCCCCNc1nc(Cl)nc(NCCN2CCOCC2)n1`, the solubility (kinetic) was found to be 0.5 µg/mL (≈ 1.35 µM).
In the case of `Cc1nc(SCC(N)=O)c(C#N)c(C)c1C` it was 4.4 µg/mL (≈ 18.7 µM); in that of `CN1CCN(c2nc(Cl)ncc2F)CC1`, > 34.6 µg/mL; in that of `O=C(O)C1CC=C(Cl)CC1C(=O)NC1CCCCC1` (configuration not stated), > 42.9 µg/mL.
Then `CCOc1cc(N2CCOCC2)c(OCC)cc1NC(=O)COC(=O)c1c(CC)noc1C`, with 7 µg/mL (≈ 15.2 µM).
Then `N#Cc1cc(N)ccc1-n1cccc1`, with 27.2 µg/mL (≈ 148 µM); and `Cc1ccc(OCC(=O)NCCNC(=O)c2ccco2)cc1`, with 32.9 µg/mL (≈ 109 µM).
With `COc1cc(NC(=S)N2CCCCC2C)c(OC)cc1Cl` (configuration not stated), the solubility (kinetic) is 44.7 µg/mL (≈ 136 µM).
`CCOC(=O)c1ccc(N2C(=O)c3cccc4c(C(=O)O)ccc(c34)C2=O)cc1` came in with a kinetic solubility of 25 µg/mL (≈ 64.2 µM).
The compound `CCOC(=O)Nc1ccc2c(c1)N(C(=O)CN)c1ccccc1CC2` registered a solubility (kinetic) of 36.6 µg/mL (≈ 108 µM).
In the case of `CCCN(CC(=O)Nc1cc(Cl)ccc1Cl)C(=O)c1ccccn1` it was > 54.9 µg/mL.
Compound `CN(C(=O)c1cccc(C(F)(F)F)c1)C1CCCc2ccccc21` (configuration not stated) showed a kinetic solubility of 19.5 µg/mL (≈ 58.5 µM).
For the compound `OC1(C#CCCN2CCCCC2)c2ccccc2-c2ccccc21`, the kinetic solubility is > 47.6 µg/mL.
Compound `COc1ccc(C(=O)NC2CCSc3ccccc32)cc1` (configuration not stated) registered a solubility (kinetic) of 6.3 µg/mL (≈ 21 µM).
`CCCOc1ccc(S(=O)(=O)N2CCN(C)CC2)c2ccccc12` had a solubility (kinetic) of 39.2 µg/mL (≈ 112 µM).

Source of the values: PubChem BioAssay AID1996.
